Reference: patent US8883841B2, “Oncogenic ras-specific cytotoxic compound and methods of use thereof” (The Board of Regents of the University of Texas System, priority 2005, dated 2014)
pIC50: −log10 of the molar value. Like-named read-outs stand apart in the source and are kept apart here.

Experiments:
A549CK8 = test: Cell viability, A549CK8 lung cancer cells; type: cell-based, human; details: Homo sapiens, read-out: IC50 (−LogM) (converted)
Ovcar3 = test: Cell viability, Ovcar3 ovary cancer cells; type: cell-based; details: Homo sapiens, OVCAR-3
TK-10 = test: NCI in-vitro testing, TK-10 (Renal Cancer)
H2009 = test: Cell viability, H2009 lung cancer cells; type: cell-based, human; details: Homo sapiens, NCI-H2009, read-out: IC50 (−LogM) (converted)
DLD1 = test: Cell viability, DLD1 colon cancer cells; type: cell-based, human; details: Homo sapiens, DLD-1, read-out: IC50 (−LogM) (converted)
miapac = test: Cell viability, miapac pancreatic cancer cells; type: cell-based, human; details: Homo sapiens, Pancreatic cancer cell, read-out: IC50 (−LogM) (converted)
AsPC-1 = test: Cell viability, AsPC-1 pancreatic cancer cells; type: cell-based, human; details: Homo sapiens, ASPC1, read-out: IC50 (−LogM), ASPC1, Pancrease (converted)
HKE3 = test: Cell viability, HKE3 colon cancer cells; type: cell-based, human; details: Homo sapiens
H2122 = test: Cell viability, H2122 lung cancer cells; type: cell-based, human; details: Homo sapiens, NCI-H2122, read-out: IC50 (−LogM) (converted)
LOX IMVI = test: NCI in-vitro testing, LOX IMVI (Melanoma)
SF-295 = test: NCI in-vitro testing, SF-295 (CNS Cancer)
Heb46 = test: Cell viability, Heb46 kidney cells; type: cell-based
CT116P53 = test: Cell viability, CT116P53 colon cancer cells; type: cell-based, human; details: Homo sapiens, read-out: IC50 (−LogM) (converted)
OVCAR-3 = test: NCI in-vitro testing, OVCAR-3 (Ovarian Cancer)
A498 = test: NCI in-vitro testing, A498 (Renal Cancer)
H1395 = test: Cell viability, H1395 lung cancer cells; type: cell-based, human; details: Homo sapiens, NCI-H1395, read-out: IC50 (−LogM) (converted)
Capanc-1 = test: Cell viability, Capanc-1 pancreatic cancer cells; type: cell-based, human; details: Homo sapiens, Pancreatic cancer cell, read-out: IC50 (−LogM), capanc1, Pancrease (converted)
H226B cells = test: Cell viability, H226B lung cancer cells; type: cell-based, human; details: Homo sapiens
H1299 cells = test: Cell viability, H1299 lung cancer cells; type: cell-based, human; details: Homo sapiens, NCI-H1299, read-out: IC50 (−LogM), h1299, Lung (converted)
SK-OV-3 = test: NCI in-vitro testing, SK-OV-3 (Ovarian Cancer)
Hct116 = test: Cell viability, Hct116 colon cancer cells; type: cell-based, human; details: Homo sapiens, HCT-116, read-out: IC50 (−LogM), Hct116, Colon (converted)
MOLT-4 = test: NCI in-vitro testing, MOLT-4 (Leukemia)
K-562 = test: NCI in-vitro testing, K-562 (Leukemia)
Heb44 = test: Cell viability, Heb44 kidney cells; type: cell-based
H1933 = test: Cell viability, H1933 lung cancer cells; type: cell-based, human; details: Homo sapiens, read-out: IC50 (−LogM) (converted)
A549 cells = test: Cell viability, A549 lung cancer cells; type: cell-based, human; details: Homo sapiens, A549, read-out: IC50 (−LogM), A549, Lung (converted)

## O=Cc1cn(Cc2cccc(Cl)c2)c2ccccc12 [Oncrasin K027, 1-(3-chlorobenzyl)-1H-indole-3-carbaldehyde]
A549CK8
  IC50: 15.8 µM
Ovcar3
  pIC50: 5.50
TK-10; Homo sapiens, TK-10
  GI50: 0.0153 µM
TK-10; Homo sapiens, TK-10, read-out: LC50
  CC50: > 100 µM
TK-10; TK-10
  TGI: 8.84E−8 Molar
TK-10; TK-10, Log10 Concentration −4.0 Molar
  Percent Growth: −16%
TK-10; TK-10, Log10 Concentration −5.0 Molar
  Percent Growth: −8%
TK-10; TK-10, Log10 Concentration −6.0 Molar
  Percent Growth: −10%
TK-10; TK-10, Log10 Concentration −7.0 Molar
  Percent Growth: −3%
TK-10; TK-10, Log10 Concentration −8.0 Molar
  Percent Growth: 62%
H2009
  IC50: < 31.6 µM
DLD1
  IC50: < 31.6 µM
miapac
  IC50: < 31.6 µM
AsPC-1
  IC50: 15.8 µM
HKE3; read-out: IC50 (−LogM), HKE3, Colon, first HKE3 line (converted)
  IC50: 1 µM
HKE3; read-out: IC50 (−LogM), HKE3, Colon, second HKE3 line (converted)
  IC50: 1.26 µM
H2122
  IC50: 0.631 µM
LOX IMVI
  TGI: 1.68E−5 Molar
LOX IMVI; Homo sapiens
  GI50: 0.0448 µM
LOX IMVI; Homo sapiens, read-out: LC50
  CC50: 47.2 µM
LOX IMVI; Log10 Concentration −4.0 Molar
  Percent Growth: −86%
LOX IMVI; Log10 Concentration −5.0 Molar
  Percent Growth: 25%
LOX IMVI; Log10 Concentration −6.0 Molar
  Percent Growth: 96%
LOX IMVI; Log10 Concentration −7.0 Molar
  Percent Growth: 95%
LOX IMVI; Log10 Concentration −8.0 Molar
  Percent Growth: 102%
SF-295; Homo sapiens, SF-295
  GI50: 1.43 µM
SF-295; Homo sapiens, SF-295, read-out: LC50
  CC50: > 100 µM
SF-295; SF-295
  TGI: 3.52E−5 Molar
SF-295; SF-295, Log10 Concentration −4.0 Molar
  Percent Growth: −15%
SF-295; SF-295, Log10 Concentration −5.0 Molar
  Percent Growth: 18%
SF-295; SF-295, Log10 Concentration −6.0 Molar
  Percent Growth: 56%
SF-295; SF-295, Log10 Concentration −7.0 Molar
  Percent Growth: 80%
SF-295; SF-295, Log10 Concentration −8.0 Molar
  Percent Growth: 104%
Heb46
  pIC50: 5.70
CT116P53
  IC50: < 31.6 µM
OVCAR-3; Homo sapiens, OVCAR-3
  GI50: 0.569 µM
OVCAR-3; Homo sapiens, OVCAR-3, read-out: LC50
  CC50: 69.1 µM
OVCAR-3; OVCAR-3
  TGI: 1.03E−5 Molar
OVCAR-3; OVCAR-3, Log10 Concentration −4.0 Molar
  Percent Growth: −60%
OVCAR-3; OVCAR-3, Log10 Concentration −5.0 Molar
  Percent Growth: 1%
OVCAR-3; OVCAR-3, Log10 Concentration −6.0 Molar
  Percent Growth: 41%
OVCAR-3; OVCAR-3, Log10 Concentration −7.0 Molar
  Percent Growth: 77%
OVCAR-3; OVCAR-3, Log10 Concentration −8.0 Molar
  Percent Growth: 95%
A498; A498
  TGI: 3.33E−8 Molar
A498; A498, Log10 Concentration −4.0 Molar
  Percent Growth: −94%
A498; A498, Log10 Concentration −5.0 Molar
  Percent Growth: −95%
A498; A498, Log10 Concentration −6.0 Molar
  Percent Growth: −87%
A498; A498, Log10 Concentration −7.0 Molar
  Percent Growth: −66%
A498; A498, Log10 Concentration −8.0 Molar
  Percent Growth: 61%
A498; Homo sapiens, A498
  GI50: 0.0124 µM
A498; Homo sapiens, A498, read-out: LC50
  CC50: 0.089 µM
H1395
  IC50: < 31.6 µM
Capanc-1
  IC50: 31.6 µM
H226B cells; read-out: IC50 (−LogM), H226B, Lung, first H226B line (converted)
  IC50: 0.316 µM
H226B cells; read-out: IC50 (−LogM), H226B, Lung, second H226B line (converted)
  IC50: 3.98 µM
H1299 cells
  IC50: 15.8 µM
SK-OV-3; Homo sapiens, SK-OV-3
  GI50: 1.82 µM
SK-OV-3; Homo sapiens, SK-OV-3, read-out: LC50
  CC50: > 100 µM
SK-OV-3; SK-OV-3
  TGI: 2.95E−5 Molar
SK-OV-3; SK-OV-3, Log10 Concentration −4.0 Molar
  Percent Growth: −18%
SK-OV-3; SK-OV-3, Log10 Concentration −5.0 Molar
  Percent Growth: 16%
SK-OV-3; SK-OV-3, Log10 Concentration −6.0 Molar
  Percent Growth: 62%
SK-OV-3; SK-OV-3, Log10 Concentration −7.0 Molar
  Percent Growth: 85%
SK-OV-3; SK-OV-3, Log10 Concentration −8.0 Molar
  Percent Growth: 96%
Hct116
  IC50: 3.98 µM
MOLT-4; Homo sapiens, MOLT-4, read-out: LC50
  CC50: 82.6 µM
MOLT-4; MOLT-4
  TGI: 3.82E−5 Molar
MOLT-4; MOLT-4, Log10 Concentration −4.0 Molar
  Percent Growth: −62%
MOLT-4; MOLT-4, Log10 Concentration −5.0 Molar
  Percent Growth: 87%
MOLT-4; MOLT-4, Log10 Concentration −6.0 Molar
  Percent Growth: 109%
MOLT-4; MOLT-4, Log10 Concentration −7.0 Molar
  Percent Growth: 102%
MOLT-4; MOLT-4, Log10 Concentration −8.0 Molar
  Percent Growth: 114%
K-562; Homo sapiens, K562
  GI50: 0.0192 µM
K-562; Homo sapiens, K562, read-out: LC50
  CC50: 54.5 µM
K-562; K-562
  TGI: 1.26E−5 Molar
K-562; K-562, Log10 Concentration −4.0 Molar
  Percent Growth: −71%
K-562; K-562, Log10 Concentration −5.0 Molar
  Percent Growth: 8%
K-562; K-562, Log10 Concentration −6.0 Molar
  Percent Growth: 87%
K-562; K-562, Log10 Concentration −7.0 Molar
  Percent Growth: 100%
K-562; K-562, Log10 Concentration −8.0 Molar
  Percent Growth: 114%
Heb44
  pIC50: 7.20
H1933
  IC50: < 31.6 µM
A549 cells
  IC50: 10 µM
